One may read the IC50 as the point on the concentration scale where inhibition reaches its midpoint. A word on the EC50: it is the midpoint of the concentration-response curve. One may read the inhibition as the relative decrease from the control value, in per cent.

The target of one test is HIV protease (Human immunodeficiency virus type 1 group M subtype B, UniProt P04585). Description: HIV protease enzyme assay (fluorescent substrate 2-aminobenzoyl-Ile-Nle-Phe(p-NO2)-Gln-ArgNH2). The format is biochemical. The conditions noted are these: for IC50: concentration at which the inhibitor reduces enzyme activity by 50%, enzyme about 12.3 nanomolar, substrate about 80 μM, pH 6.4. From the text:
The compounds of the present invention are advantageously effective HIV protease inhibitors. Utilizing an enzyme assay as described below, the compounds set forth in the examples herein disclosed inhibited the HIV enzyme. The preferred compounds of the present invention and their calculated IC50 (the concentration at which the inhibitor compound reduces enzyme activity by 50%) values are shown in Table 2.
The enzyme method is as follows. The substrate is 2-aminobenzoyl-Ile-Nle-Phe(p-NO2)-Gln-ArgNH2. The positive control is MVT-101 (Miller, M. et al, Science, 246, 1149 (1989)). The assay buffer is 20 mM sodium phosphate, pH 6.4, 20% glycerol, 1 mM EDTA, 1 mM DTT and 0.1% CHAPS. The substrate is dissolved in DMSO, then diluted 10 fold in assay buffer. Final substrate concentration in the assay is about 80 μM. HIV protease is diluted in the assay buffer to a final enzyme concentration of about 12.3 nanomolar, based on a molecular weight of 10,780.
The final concentration of DMSO is about 14% and the final concentration of glycerol is about 18%. The test compound is dissolved in DMSO and diluted in DMSO to ten times (10×) the test concentration. Ten microliters (10 μL) of the enzyme preparation is added, the materials mixed and then the mixture is incubated at ambient temperature for 15 minutes. The enzyme reaction is initiated by the addition of 40 μL of substrate. The increase in fluorescence is monitored at 4 time points (0, 8, 16 and 24 minutes) at ambient temperature. Each assay is carried out in duplicate wells.

The subject of a further test is HIV-1 in CEM cells. Kind of test: CEM cell assay, HIV inhibition in acutely infected cells (MTT). The test is classed as cell-based. The following applies: Human immunodeficiency virus 1, CCRF-CEM, 168 h; HIV-1 infected CEM cells, 7 days. The procedure:
The effectiveness of selected compounds of the present invention were determined in the above-described enzyme assay and in a CEM cell assay. The HIV inhibition assay method of acutely infected cells is an automated tetrazolium based calorimetric assay essentially that reported by Pauwles et al, J. Virol. Methods 20, 309-321 (1988). Assays were performed in 96-well tissue culture plates. CEM cells, a CD4+ cell line, were grown in RPMI-1640 medium (Gibco) supplemented with a 10% fetal calf serum and were then treated with polybrene (2 μg/ml). An 80 μl volume of medium containing 1×10^4 cells was dispensed into each well of the tissue culture plate. To each well was added a 100 μl volume of test compound dissolved in tissue culture medium (or medium without test compound as a control) to achieve the desired final concentration and the cells were incubated at 37° C. for 1 hour. A frozen culture of HIV-1 was diluted in culture medium to a concentration of […] (TCID50=the dose of virus that infects 50% of cells in tissue culture), and a 20 μL volume of the virus sample (containing 1000 TCID50 of virus) was added to wells containing test compound and to wells containing only medium (infected control cells). Several wells received culture medium without virus (uninfected control cells). Likewise, the intrinsic toxicity of the test compound was determined by adding medium without virus to several wells containing test compound. In summary, the tissue culture plates contained the following experiments: In experiments 2 and 4 the final concentrations of test compounds were 1, 10, 100 and 500 μg/ml. Either azidothymidine (AZT) or dideoxyinosine (ddI) was included as a positive drug control. […] DMSO was added to all control wells at an appropriate concentration. Following the addition of virus, cells were incubated at 37° C. in a humidified, 5% CO2 atmosphere for 7 days. Test compounds could be added on days 0, 2 and 5 if desired. On day 7, post-infection, the cells in each well were resuspended and a 100 μl sample of each cell suspension was removed for assay. A 20 μL volume of a 5 mg/ml solution of 3-(4,5-dimethylthiazol-2-yl)-2,5-diphenyltetrazolium bromide (MTT) was added to each 100 μL cell suspension, and the cells were incubated for 4 hours at […] in a 5% CO2 environment. […] To each sample was added 100 μl of 10% sodium dodecylsulfate in 0.01N HCl to lyse the cells, and samples were incubated overnight. The absorbance at 590 nm was determined for each sample using a Molecular Devices microplate reader. Absorbance values for each set of wells is compared to assess viral control infection, uninfected control cell response as well as test compound by cytotoxicity and antiviral efficacy.

Molecules are shown by their SMILES. Where a name gives a salt, the structure may show the parent alone.

In turn, `CNCC(=O)N[C@H](C(=O)N[C@@H](Cc1ccccc1)[C@H](O)CN(CCC(C)C)C(=O)NC(C)(C)C)C(C)(C)SC` [5 (Part I), (2R, 3S)-3-(N-methylaminoacetyl-S-methyl-L-penicillaminyl)amido-1-[N-isoamyl-N-(tert-butylcarbamoyl)]amino-4-phenyl-2-butanol] gave an IC50 against HIV protease of 14 nM.

In the test on HIV-1 in CEM cells, `CC[C@H](C)[C@H](NC(=O)CN(C)C)C(=O)N[C@@H](Cc1ccccc1)[C@H](O)CN(CCC(C)C)C(=O)NC(C)(C)C` [Example 3, (2R,3S)-3-(N,N-dimethylaminoacetyl-L-isoleucinyl)amido-1-[N-isoamyl-N-(tert-butylcarbamoyl)]amino-4-phenyl-2-butanol] showed an EC50 of 66 nM. Moreover, the IC50 against HIV protease stood at 14 nM. The corresponding values for `CC(C)CCN(C[C@@H](O)[C@H](Cc1ccccc1)NC(=O)[C@@H](NC(=O)[C@H](C)N(C)C(=O)OCc1ccccc1)C(C)(C)C)C(=O)NC(C)(C)C` [Example 13, (2R, 3S)-3-(N-benzyloxycarbonyl-N-methyl-L-alaninyl-L-tert-butylglycinyl)amino-1-[N-isoamyl-N-(tert-butylcarbamoyl)]amino-4-phenyl-2-butanol] are 0.034 µg/mL and 14 nM. On to `CN[C@@H](C)C(=O)N[C@H](C(=O)N[C@@H](Cc1ccccc1)[C@H](O)CN(CCC(C)C)C(=O)NC(C)(C)C)C(C)(C)C` [Example 14, (2R, 3S)-3-(N-methyl-L-alaninyl-L-tert-butylglycinyl)amino-1-[N-isoamyl-N-(tert-butylcarbamoyl)]amino-4-phenyl-2-butanol], for which, in the test on HIV-1 in CEM cells, the EC50 stood at 0.096 µg/mL. At HIV protease, this compound came in with an IC50 of 8 nM.

Regarding `CC(C)CCN(C[C@@H](O)[C@H](Cc1ccccc1)NC(=O)[C@@H](NC(=O)[C@@H](C)N(C)C(=O)OCc1ccccc1)C(C)(C)C)C(=O)NC(C)(C)C` [Example 15, (2R, 3S)-3-(N-benzyloxycarbonyl-N-methyl-D-alaninyl-L-tert-butylglycinyl)amino-1-[N-isoamyl-N-(tert-butylcarbamoyl)]amino-4-phenyl-2-butanol], the half-inhibitory concentration (IC50) on HIV protease came to 70 nM. With `CN[C@H](C)C(=O)N[C@H](C(=O)N[C@@H](Cc1ccccc1)[C@H](O)CN(CCC(C)C)C(=O)NC(C)(C)C)C(C)(C)C` [Example 16, (2R, 3S)-3-(N-methyl-D-alaninyl-L-tert-butylglycinyl)amino-1-[N-isoamyl-N-(tert-butylcarbamoyl)]amino-4-phenyl-2-butanol], it took 0.059 µg/mL to reach a half-maximal effect with HIV-1 in CEM cells (EC50). Moreover, the IC50 at HIV protease amounted to 18 nM.

The compound `CC(C)CCN(C[C@@H](O)[C@H](Cc1ccccc1)NC(=O)[C@@H](NC(=O)CNC(=O)OC(C)(C)C)C(C)(C)C)C(=O)NC(C)(C)C` [Example 17, (2R, 3S)-3-(N-tert-butoxycarbonyl-glycinyl-L-tert-butylglycinyl) amino-1-[N-isoamyl-N-(tert-butylcarbamoyl)]amino-4-phenyl-2-butanol] displayed an IC50 against HIV protease of 10 nM. On to `CC(C)CCN(C[C@@H](O)[C@H](Cc1ccccc1)NC(=O)[C@@H](NC(=O)CN)C(C)(C)C)C(=O)NC(C)(C)C` [Example 18, (2R, 3S)-3-(glycinyl-L-tert-butylglycinyl)amino-1-[N-isoamyl-N-(tert-butylcarbamoyl)]amino-4-phenyl-2-butanol Hydrochloride Salt], for which a half-maximal response in the test on HIV-1 in CEM cells (EC50) required 0.038 µg/mL. For the same compound, half-maximal inhibition on HIV protease (IC50) was put at 10 nM. For `CC(C)CCN(C[C@@H](O)[C@H](Cc1ccccc1)NC(=O)[C@@H](NC(=O)[C@@H]1CCCN1C(=O)OCc1ccccc1)C(C)(C)C)C(=O)NC(C)(C)C` [Example 19, (2R, 3S)-3-(N-benzyloxycarbonyl-L-prolyl-L-tert-butylglycinyl) amino-1-[N-isoamyl-N-(tert-butylcarbamoyl)]amino-4-phenyl-2-butanol], the concentration for half-maximal inhibition (IC50) against HIV protease was found to be 2200 nM. Same read-out and setting: then `CC(C)CCN(C[C@@H](O)[C@H](Cc1ccccc1)NC(=O)[C@@H](NC(=O)[C@@H]1CCCN1)C(C)(C)C)C(=O)NC(C)(C)C` [Example 20, (2R, 3S)-3-(L-prolyl-L-tert-butylglycinyl)amino-1-[N-isoamyl-N-(tert-butylcarbamoyl)]amino-4-phenyl-2-butanol], with 9 nM. Consider `CC(C)CCN(C[C@@H](O)[C@H](Cc1ccccc1)NC(=O)[C@@H](NC(=O)[C@@H]1CCCN1C(=O)OC(C)(C)C)C(C)(C)C)C(=O)NC(C)(C)C` [Example 21, (2R, 3S)-3-(N-tert-butoxycarbonyl-L-prolyl-L-tert-butylglycinyl) amino-1-[N-isoamyl-N-(tert-butylcarbamoyl)]amino-4-phenyl-2-butanol], for which the inhibition at 10 µM on HIV protease (@ 10 μM, read-out: inhibition of HIV protease (IC50)) was determined as 61%.

With `CC[C@H](C)[C@H](NC(=O)[C@@H](C)N(C)C(=O)OCc1ccccc1)C(=O)N[C@@H](Cc1ccccc1)[C@H](O)CN(CCC(C)C)C(=O)NC(C)(C)C` [Example 22, (2R, 3S)-3-(N-benzyloxycarbonyl-N-methyl-D-alaninyl-L-isoleucinyl)amino-1-[N-isoamyl-N-(tert-butylcarbamoyl)]amino-4-phenyl-2-butanol], the IC50 at HIV protease stood at 370 nM. As for `CC[C@H](C)[C@H](NC(=O)[C@@H](C)NC)C(=O)N[C@@H](Cc1ccccc1)[C@H](O)CN(CCC(C)C)C(=O)NC(C)(C)C` [Example 23, (2R, 3S)-3-(N-methyl-D-alaninyl-L-isoleucinyl)amino-1-[N-isoamyl-N-(tert-butylcarbamoyl)]amino-4-phenyl-2-butanol], at HIV protease, the IC50 came out at 79 nM.

`CC[C@H](C)[C@H](NC(=O)[C@@H]1CCCN1C(=O)OCc1ccccc1)C(=O)N[C@@H](Cc1ccccc1)[C@H](O)CN(CCC(C)C)C(=O)NC(C)(C)C` [Example 24, (2R, 3S)-3-(N-benzyloxycarbonyl-L-prolyl-L-isoleucinyl)amino-1-[N-isoamyl-N-(tert-butylcarbamoyl)]amino-4-phenyl-2-butanol] showed a 50% inhibitory concentration (IC50) against HIV protease of 520 nM. The same measure, in the same setting: then `CC[C@H](C)[C@H](NC(=O)[C@@H]1CCCN1)C(=O)N[C@@H](Cc1ccccc1)[C@H](O)CN(CCC(C)C)C(=O)NC(C)(C)C` [Example 25, (2R, 3S)-3-(L-prolyl-L-isoleucinyl)amino-1-[N-isoamyl-N-(tert-butylcarbamoyl)]amino-4-phenyl-2-butanol], with 51 nM.

(Values after patent US5750648A, “Retroviral protease inhibitors and combinations thereof” (G.D. Searle & Co., priority 1994, dated 1998).)
